In PMC10791743, “Selective CK1α degraders exert antiproliferative activity against a broad range of human cancer cell lines” (Nature Communications, 2024):
Several values for one entry are separate records, joined by “and”; a condition that tells them apart may be missing. Equal entries are not always repeated. Where two headings read alike, the source gives them in different places.

Assays:
CK1α = CK1α (Homo sapiens, UniProt P48729+Q96SW2); experiment: In vivo PD: CK1α protein levels in MOLM-13 xenograft (western blot of human cells from bone marrow); set-up: quantified western blots of isolated human cells from the bone marrow of treated mice; endogenous in cells; host or cells: MOLM-13 xenograft cells from NSG mouse bone marrow, murine cells depleted; species or system NSG mice engrafted with MOLM-13 cells; settings: for CK1a quantified western blot signal, group mean (Mean 2): n 3, DMSO mean 0.9882; for CK1a quantified western blot signal, individual animals: relative to DMSO; for CK1α protein level in vivo: 48 h
Method: For the PD experiment, NSG mice engrafted with MOLM-13 cells were treated for 48 h with SJ3149 or DMSO vehicle in 4 groups: vehicle, 50 mg/kg once per day, or vehicle or 50 mg/kg twice per day (Fig. 6). After 48 h, the mice were sacrificed and human cells were isolated from the collected bone marrow and lysed for western blot analysis.
(§1) For the xenograft transplantation study, female NSG mice (NOD.Cg-Prkdc^scid Il2rg^tm1Wjl/SzJ, Strain #005557, The Jackson Laboratory) aged 6–8 weeks were transplanted with 100,000 MOLM-13 cells by tail-vein injection. 10 days post-transplantation, mice were treated with SJ3149 via intraperitoneal injections for the following 2-day dosing schedule: 50 mg/kg (1 dose every 12 h), and 50 mg/kg (1 dose every 24 h) with n = 3 per group. Control groups (n = 3) were treated with DMSO either 1 dose every 24 h or 1 dose every 12 h with equal volume as treatment groups. Mice were euthanized 48 h after the first treatment and bone marrow cells were collected. Murine cells were depleted using the EasySep Mouse/Human Chimera isolation kit ([…] Technologies #19849). NSG mice were housed in microisolation cages and kept under barrier conditions to keep them specific pathogen-free. The lights for NSG mice are on an automated 12-h on, 12-h off light cycle. The mouse room has a separate thermostat and humidistat to control temperature and humidity at the room level. Sex was not considered beyond female mice being most commonly used for cell line-derived xenografts. Ethical approval by the St. Jude Institutional Animal Care and Use Committee.
as §1, with “Female” for “For the xenograft transplantation study, female”

[1] = Pharmacokinetics in female CD1 mice; type: in vivo, mouse; settings: mouse; for half-life: CD1, mouse, plasma
Method: Three mice were housed in each cage. […] Temperature and humidity were recorded by an auto-controlled data logger system. All the animals were provided a laboratory rodent diet (Altromin, Germany). Reverse osmosis water treated with ultraviolet light was provided ad libitum. Total 27 mice (n = 9/group) were divided into three groups as Group 1, Group 2, and Group 3 with a sparse sampling design (3 mice/time points). […] The formulation vehicle for IV was 5% v/v NMP, 5% v/v Solutol HS-15 and 90% v/v Normal saline, and for PO & IP was 10%v/v NMP, 10%v/v Solutol HS-15. 50%v/v PEG-400 and 30%v/v HPβCD (20%w/v) in saline. […] Immediately after blood collection, plasma was harvested by centrifugation at 12,300×g, 10 min at 4 °C and samples were stored at −70 ± 10 °C until bioanalysis. Concentrations of SJ3149 in mouse plasma samples were determined by fit-for-purpose LC–MS/MS method. Non-Compartmental-Analysis tool of Phoenix WinNonlin® (Version 8.3) was used to assess the pharmacokinetic parameters. Peak plasma concentration (Cmax) and time for the peak plasma concentration (Tmax) were the observed values. The area under the concentration–time curve (AUClast) was calculated by the linear trapezoidal rule. The terminal elimination rate constant, ke was determined by regression analysis of the linear terminal portion of the log plasma concentration-time curve. Clearance was estimated as Dose/AUCinf and Vss as CL*MRT.

[2] = female, CD1, plasma, IP 50 mg/kg
[3] = female, CD1, plasma, IV 3 mg/kg
[4] = female, CD1, plasma, PO 50 mg/kg

Chain of CK1α (P48729 whole entry): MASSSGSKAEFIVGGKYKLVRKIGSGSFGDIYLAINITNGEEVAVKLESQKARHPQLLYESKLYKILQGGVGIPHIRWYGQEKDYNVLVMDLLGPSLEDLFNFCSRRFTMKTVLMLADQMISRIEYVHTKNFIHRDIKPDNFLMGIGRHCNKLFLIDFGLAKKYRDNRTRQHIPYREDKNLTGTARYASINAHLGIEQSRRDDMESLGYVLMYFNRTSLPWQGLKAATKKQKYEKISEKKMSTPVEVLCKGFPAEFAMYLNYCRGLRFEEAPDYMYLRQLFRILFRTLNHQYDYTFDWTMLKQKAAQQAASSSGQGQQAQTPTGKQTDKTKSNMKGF
Chain of CK1α (Q96SW2 whole entry): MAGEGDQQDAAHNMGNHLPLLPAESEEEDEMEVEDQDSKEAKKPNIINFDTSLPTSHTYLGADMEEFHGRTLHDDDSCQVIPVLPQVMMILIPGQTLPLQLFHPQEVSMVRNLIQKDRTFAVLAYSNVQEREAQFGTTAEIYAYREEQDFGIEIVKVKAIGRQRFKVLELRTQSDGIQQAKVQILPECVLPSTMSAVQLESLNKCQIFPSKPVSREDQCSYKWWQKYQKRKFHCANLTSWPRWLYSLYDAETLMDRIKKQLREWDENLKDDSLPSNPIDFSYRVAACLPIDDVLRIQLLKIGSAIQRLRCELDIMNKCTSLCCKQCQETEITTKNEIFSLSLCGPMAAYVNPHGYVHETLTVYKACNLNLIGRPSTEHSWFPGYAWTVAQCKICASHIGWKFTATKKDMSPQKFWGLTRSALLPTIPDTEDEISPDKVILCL
Chain of CK1α (Q16531 whole entry partner): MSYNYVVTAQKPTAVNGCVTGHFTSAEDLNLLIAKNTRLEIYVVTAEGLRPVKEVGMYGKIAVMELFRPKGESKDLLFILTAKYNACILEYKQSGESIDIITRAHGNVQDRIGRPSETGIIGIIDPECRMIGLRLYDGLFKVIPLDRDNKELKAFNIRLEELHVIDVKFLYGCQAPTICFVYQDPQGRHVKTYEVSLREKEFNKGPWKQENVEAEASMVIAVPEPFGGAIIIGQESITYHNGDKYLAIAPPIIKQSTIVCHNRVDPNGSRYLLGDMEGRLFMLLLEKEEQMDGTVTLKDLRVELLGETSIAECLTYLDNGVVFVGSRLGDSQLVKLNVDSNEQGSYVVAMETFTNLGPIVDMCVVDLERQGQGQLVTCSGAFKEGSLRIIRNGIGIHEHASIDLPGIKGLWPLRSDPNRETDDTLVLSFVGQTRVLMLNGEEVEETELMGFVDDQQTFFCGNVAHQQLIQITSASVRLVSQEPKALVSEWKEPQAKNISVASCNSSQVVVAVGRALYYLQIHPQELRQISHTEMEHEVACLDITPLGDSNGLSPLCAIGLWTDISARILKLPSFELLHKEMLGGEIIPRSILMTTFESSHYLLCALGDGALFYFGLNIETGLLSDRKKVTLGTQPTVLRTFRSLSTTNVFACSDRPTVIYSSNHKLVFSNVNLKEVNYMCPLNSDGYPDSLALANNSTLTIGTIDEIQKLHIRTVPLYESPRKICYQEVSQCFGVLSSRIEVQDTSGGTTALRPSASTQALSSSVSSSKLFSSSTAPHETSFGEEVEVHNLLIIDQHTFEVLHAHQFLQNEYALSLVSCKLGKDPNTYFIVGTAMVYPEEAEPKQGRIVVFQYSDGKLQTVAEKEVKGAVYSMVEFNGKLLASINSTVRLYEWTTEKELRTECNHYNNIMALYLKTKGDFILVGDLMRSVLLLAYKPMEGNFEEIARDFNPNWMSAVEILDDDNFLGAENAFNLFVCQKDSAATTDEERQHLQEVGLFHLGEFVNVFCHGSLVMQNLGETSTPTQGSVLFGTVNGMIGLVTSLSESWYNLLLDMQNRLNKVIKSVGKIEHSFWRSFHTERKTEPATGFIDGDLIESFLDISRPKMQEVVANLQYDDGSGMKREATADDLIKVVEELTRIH

With `O=C1CCC(N2Cc3cc(Nc4noc5ccccc45)ccc3C2=O)C(=O)N1` (stereo not shown) [SJ3149] as the compound, how does the “CK1a quantified western blot signal, group mean (Mean 2)” value (CK1α; 50 mg/kg 1x/day) read?
Its value is 0.3507.

What about the “CK1a quantified western blot signal, individual animals” value (CK1α; 50 mg/kg 1x/day) of the same compound?
Its value is 0.2018 and 0.4461 and 0.4041.

And the “CK1a quantified western blot signal, group mean (Mean 2)” value (CK1α; 50 mg/kg 2x/day)?
The value was 0.212.

And the “CK1a quantified western blot signal, individual animals” value (CK1α; 50 mg/kg 2x/day)?
The value was 0.07248 and 0.5016 and 0.06191.

What about the “CK1a quantified western blot signal, group mean (Mean 2)” value (CK1α; 100 mg/kg 1x/day) of the same compound?
The value was 0.4998.

And the “CK1a quantified western blot signal, individual animals” value (CK1α; 100 mg/kg 1x/day)?
Its value is 0.1574 and 0.8298 and 0.5123.

And the “CK1α protein level in vivo” value (CK1α; IP 50 mg/kg once per day)?
Its value is “significant degradation of CK1α”.

What about the “CK1α protein level in vivo” value (CK1α; IP 50 mg/kg twice per day) of the same compound?
Its value is “significant degradation of CK1α”.

And the T1/2 ([1]; PO 50 mg/kg, 50 mg/kg)?
The T1/2 was 154 min.

And the half-life ([1]; female, ip, 50 mg/kg, IP 50 mg/kg)?
Its half-life is 185 min.

What about the half-life ([1]; female, iv, 3 mg/kg, IV 3 mg/kg) of the same compound?
Its half-life is 46.2 min.

What about the half-life ([1]; female, po, 50 mg/kg, PO 50 mg/kg) of the same compound?
Its half-life is about 180 min.

And the AUC(0-t) [1, 2]?
The AUC(0-t) was 17000 ng·h/mL.

What about the Tmax [1, 2] of the same compound?
Its Tmax is 15 min.

And the bioavailability [1, 2]?
Its bioavailability is 74%.

What about the Cmax ([1]; female, CD1, plasma, IP 50 mg/kg, read-out: C0/Cmax) of the same compound?
Its Cmax is 6680 ng/mL.

What about the AUC(0-t) [1, 3] of the same compound?
Its AUC(0-t) is 1370 ng·h/mL.

And the clearance [1, 3]?
The clearance was 36.2 mL/min/kg.

And the Cmax ([1]; female, CD1, plasma, IV 3 mg/kg, read-out: C0/Cmax (C0 back extrapolated))?
The Cmax was 4510 ng/mL.

What about the Vd ([1]; female, CD1, plasma, IV 3 mg/kg, read-out: Vss) of the same compound?
Its Vd is 0.67 L/kg.

And the AUC(0-t) [1, 4]?
The AUC(0-t) was 2850 ng·h/mL.

And the Tmax [1, 4]?
The Tmax was 15 min.

What about the bioavailability [1, 4] of the same compound?
The bioavailability was 12%.

What about the Cmax ([1]; female, CD1, plasma, PO 50 mg/kg, read-out: C0/Cmax) of the same compound?
Its Cmax is 4740 ng/mL.

And the Cmax ([1]; female, CD1, plasma, PO 50 mg/kg, read-out: C0/Cmax (molar))?
Its Cmax is 12.6 µM.
